Experimental data as given in PMC10245910 (bioRxiv, 2023).
pKd: −log10 of the molar value.

Tests used:
BesD [1] = biological target: T1, BesD (Streptantibioticus cattleyicolor, UniProt G8XHD5); experiment: UV-Vis MLCT shift; assay type: biochemical; details: BesD-Fe-2OG complex with lysine; anaerobic UV-Vis
T1 sequence (G8XHD5 1-242): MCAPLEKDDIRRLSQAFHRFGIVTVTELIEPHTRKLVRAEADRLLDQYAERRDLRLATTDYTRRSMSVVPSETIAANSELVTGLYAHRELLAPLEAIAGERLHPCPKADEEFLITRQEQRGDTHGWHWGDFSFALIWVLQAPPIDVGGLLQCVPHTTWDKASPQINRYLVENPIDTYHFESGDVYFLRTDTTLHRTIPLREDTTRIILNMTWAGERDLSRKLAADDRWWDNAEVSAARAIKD

BesD [2] = biological target: T1, BesD; experiment: biochemical
BesD [3] = biological target: T1, BesD; experiment: UV-Vis MLCT shift; assay type: biochemical; details: BesD-Fe-2OG complex with lysine; anaerobic UV-Vis; remark: listed apart in the source
BesD [4] = biological target: T1, BesD; experiment: UV-Vis MLCT band; assay type: binding; details: Fe(II) added; co-substrate

[N-]=[N+]=[N-] [azide]
UV-Vis MLCT shift; UPLC-MS/MS of azidation product (BesD [1]): perturbations of the MLCT band with azide and bromide are minimal until the addition of lysine

NCCCC[C@H](N)C(=O)O [lysine]
pKd (BesD [2]): 4.30

Br [bromide]
UV-Vis MLCT shift; UPLC-MS/MS of bromination product (BesD [3]): perturbations of the MLCT band with azide and bromide are minimal until the addition of lysine

O=C(O)CCC(=O)C(=O)O [2-oxoglutarate]
UV-Vis MLCT band (BesD [4]): Upon the addition of Fe^II and 2OG to BesD, an MLCT band forms
